The record followed here is US11034932B2, “Composition capable of promoting the growth of denitrifying microorganisms and uses thereof” (CHINA PETROLEUM & CHEMICAL CORPORATION, priority 2016, dated 2021).

The assay has as its system denitrifying microorganisms. Description: AO wastewater treatment with promoter 1# plus additive (Example 2). The following applies: additive (0.05-0.10 mg/L) added along with promoter 1#; process as example 1. The method, then:
Hereunder the present invention will be detailed in examples. In the following examples, the COD concentration is measured with the method specified in GB11914-89 “Water Quality—Determination of Chemical Oxygen Demand—Dichromate Method”; the ammonia nitrogen concentration is measured with the method specified in GB7478-87 “Water Quality—Determination of Ammonium—Distillation and Titration Method”; the concentration of nitrite nitrogen is measured with the method specified in GB7493-87 “Water Quality—Determination of Nitrite Nitrogen—Spectrophotometric Method”; the total nitrogen concentration is measured with the method specified in GB11894-89 “Water Quality—Determination of Total Nitrogen—UV Spectrophotometric Method—Alkaline Potassium Persulfate Digestion Method”.
The wastewater is treated according to the treatment process and operating condition described in example 1, but: an additive is added in a certain amount along with the promoter 1#.
Wherein the formic acid hydroxylamine is obtained by mixing a formic acid and a hydroxylamine at 1:1 molar ratio; the acetic acid hydroxylamine is obtained by mixing an acetic acid and a hydroxylamine at 1:1 molar ratio; both of them are […] after they are prepared.
Regarding `O=S([O-])[O-].[Na+].[Na+]` [Na2SO3], the “COD in outputted water” value was 44.3 mg/L, the “NH3—N in outputted water” value was determined as 10.0 mg/L, the “NO2^—N in outputted water” value worked out at 0.2 mg/L and the “TN in outputted water” value is 18.2 mg/L.

On to `NCCCCNCCCN` [Spermidine], for which the “COD in outputted water” value is recorded as 48.4 mg/L, the “NH3—N in outputted water” value turned out to be 8.9 mg/L, the “NO2^—N in outputted water” value was determined as 0.2 mg/L and the “TN in outputted water” value worked out at 23.9 mg/L.

With `NCCCNCCCCNCCCN` [Spermine], the “COD in outputted water” value is reported as 47.9 mg/L, the “NH3—N in outputted water” value was determined as 9.3 mg/L, the “NO2^—N in outputted water” value turned out to be 0.1 mg/L and the “TN in outputted water” value was determined as 21.3 mg/L.
